From ChEMBL document CHEMBL1141442, “Structure elucidation of a dihydropyranone from Tapinanthus dodoneifolius” (J Nat Prod, 2007)

Species on record: Rattus norvegicus
Experiment: Vasorelaxant effect on norepinephrine induced-contraction in Wistar rat aortic rings
Type: functional, organism-based
Conditions: Aorta

**Q.** Which IC50 does the source give for O=C1C=CC[C@H](C[C@@H](O)CCc2ccc(O)cc2)O1 here?
**A.** 81.4 µM
